This passage reports IC50 and IC90 results from ChEMBL document CHEMBL4483862, “Open-source discovery of chemical leads for next-generation chemoprotective antimalarials” (2018).

The assay deals with Plasmodium berghei. Kind of assay: Luciferase/luciferin-expressing antifolate-resistant parasites were used to infect a culture of HepG2 cells that were pre-incubated with compounds. Infected hepatocytes emit light due to the luciferase reaction. Assay results are presented as the percent inhibition of light emission compared to control. […]. In kind it is functional. Particulars: sporozoite; for IC90: read-out: LUCIFERASE INFECTION ASSAY - IC90.

Setting [1] is: read-out: LUCIFERASE INFECTION ASSAY - IC50.

Each structure is given as a SMILES string.

For `O=C(Nc1nonc1-c1cccs1)c1ccc(Br)cc1`, the IC90 was determined as 6.36 µM. Further, under “HEPG2TOX_HILL_SLOPE 7.96, HEPG2TOX_R_SQUARED 0.814, PBLUC_HILL_SLOPE 7.42, PBLUC_R_SQUARED 0.0569, read-out: LUCIFERASE INFECTION ASSAY - IC50”, the concentration for half-maximal inhibition (IC50) came out at 4.73 µM.

Turning to `CCn1c2ccccc2c2cc(CNCCNC(=O)c3nonc3N)ccc21`, the concentration for an effect of 90% (IC90) is > 8.72 µM. Also, the IC50 under setting [1] is > 8.72 µM.

For `CC(C)(C)c1ccc(C(=O)Nc2ccc(C(F)(F)F)cc2)s1`, the concentration for an effect of 90% (IC90) amounted to 4.36 µM. Further, under setting [1], the 50% inhibitory concentration (IC50) was determined as 0.561 µM.

As for `CN(CC(=O)NC1CC1)C(=O)CNc1ccccc1Oc1ccccc1`, the IC90 stood at 4.68 µM. In addition, the IC50 (PBLUC_HILL_SLOPE 1.7, PBLUC_R_SQUARED 0.39, read-out: LUCIFERASE INFECTION ASSAY - IC50) came to 1.29 µM.

On to `O=C(Nc1nn[nH]n1)c1ccc(S(=O)(=O)N2CCCCCC2)cc1`, for which the concentration for an effect of 90% (IC90) was 9.99 µM. Further, the IC50 (PBLUC_HILL_SLOPE 18.6, PBLUC_R_SQUARED 0.124, read-out: LUCIFERASE INFECTION ASSAY - IC50) is 8.88 µM.

Turning to `COc1cccc(Nc2nc(C(N)Cc3ccc(F)cc3)cs2)n1` (stereo not given), the IC90 was > 9.58 µM. Moreover, the IC50 under setting [1] was > 9.58 µM.

Consider `Cc1ccc(S(=O)(=O)c2ccc(-c3ccccc3)cc2)cc1`, for which the concentration for an effect of 90% (IC90) was > 10.7 µM. In addition, under setting [1], the IC50 is > 10.7 µM.

With `O=C(COc1ccc2[nH]c3ccccc3c(=O)c2c1)N1CCN(c2ccc(F)cc2)CC1`, the IC90 turned out to be 7.49 µM. Also, under “PBLUC_HILL_SLOPE 2.14, PBLUC_R_SQUARED 0.725, read-out: LUCIFERASE INFECTION ASSAY - IC50”, the IC50 is 2.68 µM.

On to `Cc1cc(C)cc(OCC(O)CNC(C)CCC(C)C)c1` (stereo not given), for which the IC90 was > 10 µM. Moreover, the IC50 under setting [1] was > 10 µM.

With `CNc1nc2cnc(Nc3ccc(C(F)(F)F)cc3)cc2n1Cc1ccccc1`, the IC90 is > 10 µM. For the same compound, where the note is “HEPG2TOX_HILL_SLOPE 3.2, HEPG2TOX_R_SQUARED 0.033, read-out: LUCIFERASE INFECTION ASSAY - IC50”, the IC50 was > 10 µM.

In the case of `O=C(NC1CC1)c1ccc(-c2cn3c(-c4ccc(C(=O)NC5CC5)cc4)cnc3cn2)cc1`, the 90% effect concentration (IC90) was > 7.54 µM. In addition, the 50% inhibitory concentration (IC50) (HEPG2TOX_HILL_SLOPE 0.33, HEPG2TOX_R_SQUARED 0.326, PBLUC_HILL_SLOPE 6.32, PBLUC_R_SQUARED 0.0215, read-out: LUCIFERASE INFECTION ASSAY - IC50) was > 7.54 µM.

In the case of `COC(=O)c1ccc(OC(=O)c2cc3c(s2)CCC3)cc1`, the IC90 was > 10 µM. The IC50 (FFLUC_HILL_SLOPE 8.2, FFLUC_R_SQUARED 0.68, read-out: LUCIFERASE INFECTION ASSAY - IC50) was > 10 µM.

`COc1cc(/C=C/C(=O)c2ccc3[nH]c(=O)[nH]c3c2)cc(Cl)c1OC(F)F`: the concentration for an effect of 90% (IC90) is > 10 µM. Also, the IC50 (PBLUC_HILL_SLOPE 1.43, PBLUC_R_SQUARED 0.612, read-out: LUCIFERASE INFECTION ASSAY - IC50) was determined as 6.07 µM.

`CCc1sc2nc(SCC(=O)NC(C)(C#N)C(C)C)n(Cc3ccc(C)cc3)c(=O)c2c1C` (stereo not given): the IC90 is > 10 µM. The concentration for half-maximal inhibition (IC50) (FFLUC_HILL_SLOPE 10, FFLUC_R_SQUARED 0.698, read-out: LUCIFERASE INFECTION ASSAY - IC50) is > 10 µM.

Regarding `CSc1sc(-c2ccon2)c(-c2ccccc2)c1C#N`, the concentration for an effect of 90% (IC90) was > 11.1 µM. Under setting [1], the 50% inhibitory concentration (IC50) was > 11.1 µM.

Take `COc1ccc2cc(C3(C)NC(=O)N(Cc4nc(N)nc(Nc5ccc(F)cc5)n4)C3=O)ccc2c1` (stereo not given): the IC90 was > 10 µM. Moreover, under setting [1], the IC50 was > 10 µM.

Turning to `CC(=C(C#N)C#N)c1ccc2c(c1)OCCO2`, the IC90 was > 10 µM. Also, the IC50 under setting [1] is > 10 µM.

Turning to `O=C(c1csc2c1CCCC2)N1CCc2c(c(C(=O)N3CCCC3)nn2Cc2ccncc2)C1`, the 90% effect concentration (IC90) is > 6.94 µM. Under setting [1], the IC50 was > 6.94 µM.

With `O=C(CSc1nnc(-c2ccncc2)[nH]1)N1N=C(c2cccs2)CC1c1cccs1` (stereo not given), the IC90 is > 10 µM. Besides, the half-inhibitory concentration (IC50) (HEPG2TOX_HILL_SLOPE 0.148, HEPG2TOX_R_SQUARED 0.0376, read-out: LUCIFERASE INFECTION ASSAY - IC50) was > 10 µM.

With `Cc1ccc(-n2[nH]c(C)c(C=Nc3ccc(OC(F)(F)F)cc3)c2=O)cc1`, the IC90 was > 8.79 µM. Further, where the note is “PBLUC_HILL_SLOPE 2.73, PBLUC_R_SQUARED 0.732, read-out: LUCIFERASE INFECTION ASSAY - IC50”, the IC50 was 4.57 µM.

`CN(CCCc1[nH]nc(N)c1C#N)c1nc(-c2ccccn2)nc2sc(-c3ccccc3)cc12`: the IC90 was > 10 µM. Also, where the note is “PBLUC_HILL_SLOPE 13.8, PBLUC_R_SQUARED 0.648, read-out: LUCIFERASE INFECTION ASSAY - IC50”, the half-inhibitory concentration (IC50) was 8.54 µM.

Take `CCCN(CCC)S(=O)(=O)c1ccc(-n2ncc(Cl)c(Cl)c2=O)cc1`: the IC90 worked out at 2.67 µM. Besides, under “FFLUC_HILL_SLOPE 2.22, FFLUC_R_SQUARED 0.495, HEPG2TOX_HILL_SLOPE 4.03, HEPG2TOX_R_SQUARED 0.969, PBLUC_HILL_SLOPE 5.8, PBLUC_R_SQUARED 0.662, read-out: LUCIFERASE INFECTION ASSAY - IC50”, the IC50 came out at 1.83 µM.

As for `Cn1cc(-c2cn3c(-c4cccc(OC(F)(F)F)c4)cnc3cn2)cn1`, the IC90 is > 9.18 µM. In addition, where the note is “PBLUC_HILL_SLOPE 3.72, PBLUC_R_SQUARED 0.643, read-out: LUCIFERASE INFECTION ASSAY - IC50”, the 50% inhibitory concentration (IC50) is 5.44 µM.

Take `COc1ccc(C(=O)N2CCC(Cc3ccccc3)CC2)c(O)c1`: the 90% effect concentration (IC90) is > 10 µM. For the same compound, the concentration for half-maximal inhibition (IC50) (HEPG2TOX_HILL_SLOPE 0.725, HEPG2TOX_R_SQUARED 0.627, PBLUC_HILL_SLOPE 3.95, PBLUC_R_SQUARED 0.49, read-out: LUCIFERASE INFECTION ASSAY - IC50) is 7.88 µM.

Regarding `NC(=O)c1cccc(-c2ccc3ncc(-c4cccc(O)c4)n3n2)c1`, the 90% effect concentration (IC90) was determined as 7.72 µM. For the same compound, the IC50 (HEPG2TOX_HILL_SLOPE 3.39, HEPG2TOX_R_SQUARED 0.986, PBLUC_HILL_SLOPE 6.74, PBLUC_R_SQUARED 0.592, read-out: LUCIFERASE INFECTION ASSAY - IC50) is 5.57 µM.

For `Cn1cccc1C(=O)NC(=O)COC(=O)CCNC(=O)c1ccc([N+](=O)[O-])cc1`, the IC90 is > 10 µM. In addition, the half-inhibitory concentration (IC50) under setting [1] is > 10 µM.

As for `CNc1nc2cnc(Nc3cccc(Cl)c3)cc2n1Cc1ccco1`, the IC90 was > 10 µM. Moreover, the IC50 (HEPG2TOX_HILL_SLOPE 1.66, HEPG2TOX_R_SQUARED 0.976, PBLUC_HILL_SLOPE 2.05, PBLUC_R_SQUARED 0.683, read-out: LUCIFERASE INFECTION ASSAY - IC50) is 3.63 µM.

In the case of `N#Cc1ccccc1S(=O)(=O)Oc1ccccc1C(F)(F)F`, the IC90 is > 10 µM. The IC50 under setting [1] was > 10 µM.

In the case of `Cc1ccc(N(CC(=O)Nc2ccc(F)cc2F)C2=NC(=O)CS2)cc1`, the concentration for an effect of 90% (IC90) turned out to be 9.47 µM. The IC50 (PBLUC_HILL_SLOPE 3.93, PBLUC_R_SQUARED 0.513, read-out: LUCIFERASE INFECTION ASSAY - IC50) turned out to be 5.41 µM.

Turning to `COc1cc(N2C(=O)C=CC2=O)cc(OC)c1OC`, the 90% effect concentration (IC90) is > 12.5 µM. In addition, the IC50 (HEPG2TOX_HILL_SLOPE 7.92, HEPG2TOX_R_SQUARED 0.512, PBLUC_HILL_SLOPE 9.52, PBLUC_R_SQUARED 0.0663, read-out: LUCIFERASE INFECTION ASSAY - IC50) is > 12.5 µM.

With `Cc1cc(NC(c2cccc(Br)c2)c2ccc3cccnc3c2O)no1` (stereo not given), the concentration for an effect of 90% (IC90) turned out to be 5.63 µM. In addition, the 50% inhibitory concentration (IC50) (FFLUC_HILL_SLOPE 0.447, FFLUC_R_SQUARED 0.211, HEPG2TOX_HILL_SLOPE 1.34, HEPG2TOX_R_SQUARED 0.983, PBLUC_HILL_SLOPE 2.79, PBLUC_R_SQUARED 0.445, read-out: LUCIFERASE INFECTION ASSAY - IC50) amounted to 2.56 µM.

Take `COc1ccc(NC(=O)Nc2ccc3nc(-c4ccccc4)nn3c2)cc1OC`: the concentration for an effect of 90% (IC90) is > 10 µM. Moreover, the IC50 under setting [1] is > 10 µM.

As to `CCC(=O)c1ccc(OCC(=O)N(C)C2CCc3ccccc32)cc1` (stereo not given), the concentration for an effect of 90% (IC90) was > 10 µM. The half-maximal inhibitory concentration (IC50) under setting [1] was > 10 µM.

For the compound `COc1ccc(CCC2CCN(C(=O)c3cc(S(N)(=O)=O)c(Cl)cc3Cl)CC2)cc1`, the IC90 was > 10 µM. For the setting “PBLUC_HILL_SLOPE 15.3, 12.1, PBLUC_R_SQUARED 0.180, 0.0239, read-out: LUCIFERASE INFECTION ASSAY - IC50”, the 50% inhibitory concentration (IC50) stood at 9.53 µM.

Regarding `CCCOc1ccc(C(=O)CCC(=O)NNC(=O)c2ccncc2)cc1`, the concentration for an effect of 90% (IC90) came out at 5.4 µM. Also, the half-maximal inhibitory concentration (IC50) (HEPG2TOX_HILL_SLOPE 2.12, HEPG2TOX_R_SQUARED 0.868, PBLUC_HILL_SLOPE 86, PBLUC_R_SQUARED 0.219, read-out: LUCIFERASE INFECTION ASSAY - IC50) stood at 5.26 µM.

On to `CCOC(=O)c1[nH]c2ccccc2c1-c1ccccc1`, for which the IC90 is > 12.4 µM. In addition, under setting [1], the 50% inhibitory concentration (IC50) was > 12.4 µM.

For the compound `COc1ccc(-c2nonc2NC(=O)c2sc3cc(C)ccc3c2Cl)cc1`, the concentration for an effect of 90% (IC90) is 6.5 µM. In addition, where the note is “HEPG2TOX_HILL_SLOPE 8.9, HEPG2TOX_R_SQUARED 0.644, PBLUC_HILL_SLOPE 6.34, PBLUC_R_SQUARED 0.0844, read-out: LUCIFERASE INFECTION ASSAY - IC50”, the concentration for half-maximal inhibition (IC50) is 4.6 µM.

For the compound `CC(NC(=O)NCc1ccccc1)c1ccc2ccccc2c1` (stereo not given), the 90% effect concentration (IC90) was > 10 µM. For the same compound, the IC50 under setting [1] is > 10 µM.

Consider `O=C(c1cc2cc(Cl)ccc2o1)N1CCN(Cc2ccc3c(c2)OCO3)CC1`, for which the 90% effect concentration (IC90) was > 8.27 µM. In addition, the IC50 under setting [1] is > 8.27 µM.

For `OC(COc1ccccc1F)CN1CCN(Cc2csc3ccccc23)CC1` (stereo not given), the 90% effect concentration (IC90) was > 10 µM. Also, the IC50 (PBLUC_HILL_SLOPE 13.5, PBLUC_R_SQUARED 0.264, read-out: LUCIFERASE INFECTION ASSAY - IC50) was > 10 µM.
